Measured values reported in ChEMBL document CHEMBL4043140, “Synthesis of different heterocycles-linked chalcone conjugates as cytotoxic agents and tubulin polymerization inhibitors” (Bioorg Med Chem, 2017).
Active and inactive are the calls of the source. The rule behind the calls is not given here.

How the values were obtained:
HCT-116 = assay: Antiproliferative activity against human HCT116 cells after 48 hrs by MTT assay; format: functional, cell-based; conditions: HCT-116, 48 h
HCT-15 = assay: Antiproliferative activity against human HCT15 cells after 48 hrs by MTT assay; format: functional, cell-based; conditions: HCT-15, 48 h
NCI-H460 [1] = assay: Antiproliferative activity against human NCI-H460 cells after 48 hrs by MTT assay; format: functional, cell-based; conditions: NCI-H460, 48 h
[2] = Antiproliferative activity against human U87 cells after 48 hrs by MTT assay; format: functional, cell-based, U-87MG ATCC; conditions: U-87 MG
DU-145 = assay: Antiproliferative activity against human DU145 cells after 48 hrs by MTT assay; format: functional, cell-based; conditions: DU-145, 48 h
PC-3 = assay: Antiproliferative activity against human PC3 cells after 48 hrs by MTT assay; format: functional, cell-based; conditions: PC-3, 48 h
A549 = assay: Antiproliferative activity against human A549 cells after 48 hrs by MTT assay; format: functional, cell-based; conditions: A549, 48 h
NCI-H460 [3] = assay: Induction of morphological changes in human NCI-H460 cells assessed as […] deformation at 1.25 to 5 uM after 48 hrs by phase contrast microscopic analysis; format: functional, cell-based
NCI-H460 [4] = assay: Induction of morphological changes in human NCI-H460 cells assessed as cell shrinkage at 1.25 to 5 uM after 48 hrs by phase contrast microscopic analysis; format: functional, cell-based
NCI-H460 [5] = assay: Induction of apoptosis in human NCI-H460 cells assessed as reduction in viable cells at 1.25 to 5 uM after 48 hrs by phase contrast microscopic analysis; format: functional, cell-based
NCI-H460 [6] = assay: Induction of apoptosis in human NCI-H460 cells assessed as horse-shoe shaped nuclei at 2.5 to 10 uM after 24 hrs by DAPI staining-based fluorescence microscopic analysis; format: functional, cell-based
NCI-H460 [7] = assay: Induction of reactive oxygen species generation in human NCI-H460 cells after 6 hrs by DCFDA staining-based method; format: functional, cell-based
NCI-H460 [8] = assay: Induction of reactive oxygen species generation in human NCI-H460 cells after 6 hrs in presence of NAC by DCFDA staining-based method; format: functional, cell-based
[9] = Inhibition of porcine brain tubulin polymerization after 1 hr in presence of GTP by fluorescence assay; parameters: species or system Sus scrofa
NCI-H460 [10] = assay: Cell cycle arrest in human NCI-H460 cells assessed as accumulation at G0/G1 phase at 1.25 uM after 24 hrs by propidium iodide staining-based flow cytometry (reference value: 49.17%); format: functional
NCI-H460 [11] = assay: Cell cycle arrest in human NCI-H460 cells assessed as accumulation at S phase at 1.25 uM after 24 hrs by propidium iodide staining-based flow cytometry (reference value: 15.55%); format: functional
NCI-H460 [12] = assay: Cell cycle arrest in human NCI-H460 cells assessed as accumulation at G2/M phase at 1.25 uM after 24 hrs by propidium iodide staining-based flow cytometry (reference value: 34.71%); format: functional
NCI-H460 [13] = assay: Cell cycle arrest in human NCI-H460 cells assessed as accumulation at G0/G1 phase at 2.5 uM after 24 hrs by propidium iodide staining-based flow cytometry (reference value: 49.17%); format: functional
NCI-H460 [14] = assay: Cell cycle arrest in human NCI-H460 cells assessed as accumulation at S phase at 2.5 uM after 24 hrs by propidium iodide staining-based flow cytometry (reference value: 15.55%); format: functional
NCI-H460 [15] = assay: Cell cycle arrest in human NCI-H460 cells assessed as accumulation at G2/M phase at 2.5 uM after 24 hrs by propidium iodide staining-based flow cytometry (reference value: 34.71%); format: functional
NCI-H460 [16] = assay: Cell cycle arrest in human NCI-H460 cells assessed as accumulation at G0/G1 phase at 5 uM after 24 hrs by propidium iodide staining-based flow cytometry (reference value: 49.17%); format: functional
NCI-H460 [17] = assay: Cell cycle arrest in human NCI-H460 cells assessed as accumulation at S phase at 5 uM after 24 hrs by propidium iodide staining-based flow cytometry (reference value: 15.55%); format: functional
NCI-H460 [18] = assay: Cell cycle arrest in human NCI-H460 cells assessed as accumulation at G2/M phase at 5 uM after 24 hrs by propidium iodide staining-based flow cytometry (reference value: 34.71%); format: functional

Row | Structure (SMILES) | IC50 (HCT-116) [µM] | IC50 (HCT-15) [µM] | IC50 (NCI-H460 [1]) [µM] | IC50 (DU-145) [µM] | IC50 (PC-3) [µM] | IC50 (A549) [µM] | IC50 [2] [µM] | further results
1 | COc1cc(/C=C/C(=O)c2ccc(Br)cc2)ccc1OCCN1CCOCC1 | > 20 | > 20 | > 20 | 9.74 | 8.89 | 12.1 | > 20 | 
2 | COc1cc(/C=C/C(=O)c2ccc(Cl)cc2)ccc1OCCCCN1CCCCC1 | > 20 | 8.11 | 10.2 | 7.74 | 6.84 | 8.99 | 8.01 | 
3 | COc1ccc(/C=C\c2cc(OC)c(OC)c(OC)c2)cc1O [COMBRETASTATIN A4] | 9.12 | 8.87 | 0.048 | 0.28 | 3.53 | 9.29 | 9.75 | 
4 | COc1cc(/C=C/C(=O)c2ccc(C(F)(F)F)cc2)ccc1OCCN1CCOCC1 | > 20 | > 20 | > 20 | > 20 | 6.17 | 19.1 | > 20 | 
5 | COc1cc(/C=C/C(=O)c2ccccc2O)ccc1OCCCN1CCCCC1 | 2.01 | 3.24 | 1.63 | 2.73 | 1.95 | 3.13 | 2.87 | 
6 | COc1cc(/C=C/C(=O)c2ccc(Br)cc2)ccc1OCCCCN1CCCCC1 | > 20 | 8.97 | > 20 | > 20 | 7.54 | 9.06 | 4.01 | 
7 | COc1cc(/C=C/C(=O)c2ccccc2OC)ccc1OCCCN1CC(C)OC(C)C1 (stereo unspecified) | 6.48 | 6.36 | 8.1 | 3.87 | > 20 | 5.32 | 5.03 | 
8 | COc1cc(/C=C/C(=O)c2ccc(Cl)cc2Cl)ccc1OCCCN1CC(C)OC(C)C1 (stereo unspecified) | > 20 | > 20 | > 20 | > 20 | 8.87 | > 20 | > 20 | 
9 | COc1cc(/C=C/C(=O)c2ccc(Cl)cc2Cl)ccc1OCCCCN1CCCCC1 | > 20 | > 20 | 16.3 | 5.73 | 7.29 | 9.48 | 6.09 | 
10 | COc1cc(/C=C/C(=O)c2ccc(C)cc2)ccc1OCCCN1CC(C)OC(C)C1 (stereo unspecified) | 5.45 | 8.69 | > 20 | > 20 | > 20 | 9.12 | 4.21 | 
11 | COc1cc(/C=C/C(=O)c2ccc(Cl)cc2Cl)ccc1OCCN1CCOCC1 | 19.9 | 18.2 | > 20 | 6.74 | 5.12 | > 20 | > 20 | 

Now from value to molecule, other results behind:

Row | IC50 (HCT-116) [µM] | IC50 (HCT-15) [µM] | IC50 (NCI-H460 [1]) [µM] | IC50 (DU-145) [µM] | IC50 (PC-3) [µM] | IC50 (A549) [µM] | Structure (SMILES) | IC50 [2] [µM] | further results
12 | 1.73 | 5.34 | 1.48 | 5.08 | 9.53 | 3.29 | COc1ccc(C(=O)/C=C/c2ccc(OCCCN3CCCCC3)c(OC)c2)cc1 | 6.3 | Activity (NCI-H460 [3]): Active; Activity (NCI-H460 [4]): Active; Activity (NCI-H460 [5]): Active; Activity (NCI-H460 [6]): Active; Activity (NCI-H460 [7]): Dose-dependent effect; Activity (NCI-H460 [8]): inactive; IC50 [9]: 9.66 µM; Activity (NCI-H460 [10]): 47.5%; Activity (NCI-H460 [11]): 12.21%; Activity (NCI-H460 [12]): 39.3%; Activity (NCI-H460 [13]): 46.74%; Activity (NCI-H460 [14]): 9.3%; Activity (NCI-H460 [15]): 42.88%; Activity (NCI-H460 [16]): 42.8%; Activity (NCI-H460 [17]): 8.12%; Activity (NCI-H460 [18]): 48.85%
13 | 19.2 | > 20 | > 20 | > 20 | > 20 | > 20 | COc1cc(/C=C/C(=O)c2ccc(Cl)cc2Cl)ccc1OCCCN1CCc2ccccc21 | 19.8 | 
14 | > 20 | 7.54 | 9.96 | 8.74 | 9.19 | 8.21 | COc1ccc(C(=O)/C=C/c2ccc(OCCN3CCOCC3)c(OC)c2)cc1 | 7.09 | 
15 | > 20 | > 20 | > 20 | 18.1 | > 20 | > 20 | COc1cc(/C=C/C(=O)c2ccc(Cl)cc2)ccc1OCCCN1CCCc2ccccc21 | 16.2 | 
16 | > 20 | > 20 | > 20 | > 20 | 9.18 | > 20 | COc1cc(/C=C/C(=O)c2ccccc2)ccc1OCCCCN1CCCCC1 | > 20 | 
17 | > 20 | > 20 | > 20 | > 20 | 8.17 | > 20 | COc1cc(/C=C/C(=O)c2ccc(Cl)cc2Cl)ccc1OCCCN1CCCc2ccccc21 | > 20 | 
18 | 6.78 | 11 | 9.89 | 2.02 | 7.89 | 5.36 | COc1ccc(C(=O)/C=C/c2ccc(OCCCN3CCOCC3)c(OC)c2)cc1 | 7.12 | 
19 | > 20 | > 20 | > 20 | > 20 | > 20 | > 20 | COc1ccc(C(=O)/C=C/c2ccc(OCCCN3CCCc4ccccc43)c(OC)c2)cc1 | 18.2 | 
20 | > 20 | 19.9 | > 20 | 16.1 | > 20 | 18.7 | COc1ccc(C(=O)/C=C/c2ccc(OCCCN3CCc4ccccc43)c(OC)c2)cc1 | 15.2 | 
21 | 7.87 | 8.64 | 4.18 | 3.27 | > 20 | 7.42 | COc1ccc(C(=O)/C=C/c2ccc(OCCCN3CC(C)OC(C)C3)c(OC)c2)cc1 (stereo unspecified) | 5.67 | 
22 | > 20 | > 20 | 8.16 | 17.1 | 8.93 | 16.5 | COc1cc(/C=C/C(=O)c2ccc(Br)cc2)ccc1OCCCN1CCCCC1 | > 20 | 
23 | 3.97 | 4.03 | 8.96 | 5.74 | 4.78 | 3.7 | COc1ccc(C(=O)/C=C/c2ccc(OCCCn3nc(C)cc3C)c(OC)c2)cc1 | 6.93 | 
24 | > 20 | > 20 | > 20 | > 20 | > 20 | 19.1 | COc1cc(/C=C/C(=O)c2ccc(Br)cc2)ccc1OCCCN1CCCc2ccccc21 | > 20 | 
25 | > 20 | > 20 | > 20 | > 20 | > 20 | > 20 | COc1cc(/C=C/C(=O)c2ccccc2)ccc1OCCCN1CCCc2ccccc21 | 19.8 | 
